This series in a line: Hydrolytic stability of the metal halide complexes in aqueous solution (19F and 71Ga NMR studies). Type of series: physicochemical. The source says: ^19F and ^71Ga NMR studies show complete conversion to [GaF3(Me3-tacn)]. Furthermore they confirm that the structure of the complex is retained in solution. […] The structure has also been confirmed crystallographically (FIG. 2). This provides clear evidence that direct incorporation of fluoride into the coordination sphere of carefully selected metal ions is entirely feasible, as well as establishing the high stability of the resulting fluoro complexes, even in aqueous solution.

As for [GaF3(Me3-tacn)].4H2O, for the setting “aqueous solution”, the “resistance to hydrolysis / hydrolytic stability” value is “resistant to hydrolysis”. Besides, the “stability relative to analogous halide or metal complexes” value (comparison with analogues) is “considerably more stable than the chloride and bromide analogues”.

These data come from patent publication US11135322B2, “Radiofluorination method” (GE HEALTHCARE LIMITED, priority 2012, dated 2021).
